Where only a bound is given, the exact number is not on record here.

The experiment deals with T1, human CRHR2-alpha (Homo sapiens, UniProt Q13324).
T1 sequence (Q13324 1-411): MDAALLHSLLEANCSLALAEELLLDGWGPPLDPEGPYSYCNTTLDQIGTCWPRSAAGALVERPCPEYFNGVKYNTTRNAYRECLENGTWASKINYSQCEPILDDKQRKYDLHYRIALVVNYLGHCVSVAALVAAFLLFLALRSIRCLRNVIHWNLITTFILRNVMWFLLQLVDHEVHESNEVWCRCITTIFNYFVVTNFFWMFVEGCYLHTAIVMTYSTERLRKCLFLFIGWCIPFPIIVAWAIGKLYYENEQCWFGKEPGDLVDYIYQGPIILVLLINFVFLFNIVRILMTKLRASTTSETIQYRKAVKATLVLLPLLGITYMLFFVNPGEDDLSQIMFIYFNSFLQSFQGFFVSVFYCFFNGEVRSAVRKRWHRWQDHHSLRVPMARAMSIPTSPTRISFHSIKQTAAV
The experiment in a line: cAMP functional assay for human CRHR2 (LANCE Ultra cAMP, TR-FRET). It is filed as cell-based. The following applies: CHO-K1 cells expressing human CRHR2-alpha, agonist human urocortin2 at EC80, cAMP; read-out: IC50 against CRHR2. Summed up:
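CHO-K1 stable lines; 4,000 cells/well; compound 30 min, 25° C; EC80 agonist (human urocortin2 → CRHR2, CRF → CRHR1) 30 min, 25° C; buffer HBSS/0.1% BSA/0.5 mM IBMX/5 mM Hepes pH 7.4; Eu-cAMP tracer + ULight antibody 60 min; TR-FRET read; IC50 from % inhibition curves.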
`O=C(N[C@H]1CC[C@H](Cn2c(=O)n(-c3cc(F)ccc3Cl)c3ncccc32)CC1)c1cc(Cl)cnc1C(F)F` [Example 454, 5-chloro-N-((1r,4r)-4-((3-(2-chloro-5-fluorophenyl)-2-oxo-2,3-dihydro-1H-imidazo[4,5-b]pyridin-1-yl)methyl)cyclo-hexyl)-2-(difluoromethyl) nicotinamide]: the IC50 was less than 300 nM.

As for `COc1ccc(-n2c(=O)n(C[C@H]3CC[C@H](NC(=O)c4cc(Cl)cnc4C)CC3)c3cccnc32)cc1OC1CCCC1` [Example 401, 5-chloro-N-((1r,4r)-4-((3-(3-(cyclopentyloxy)-4-methoxy-phenyl)-2-oxo-2,3-dihydro-1H-imidazo[4,5-b]pyridin-1-yl)methyl)cyclohexyl)-2-methylnicotinamide], the IC50 was less than 300 nM. For `Cc1ncc(Cl)cc1C(=O)N[C@H]1CC[C@H](Cn2c(=O)n(-c3ccc4c(N)noc4c3)c3ccccc32)CC1` [Example 198, N-((1r,4r)-4-((3-(3-aminobenzo[d]isoxazol-6-yl)-2-oxo-2,3-dihydro-1H-benzo[d]imidazol-1-yl)methyl)cyclohexyl)-5-chloro-2-methylnicotinamide] the value was less than 300 nM; for `C=Cc1cc(-n2c(=O)n(C[C@H]3CC[C@H](NC(=O)c4cc(Cl)cnc4C)CC3)c3ccccc32)ccn1` [Example 82, 5-chloro-2-methyl-N-((1r,4r)-4-((2-oxo-3-(2-vinylpyridin-4-yl)-2,3-dihydro-1H-benzo [d]imidazol-1-yl)methyl)cyclohexyl)nicotinamide], less than 300 nM; for `COc1ccc(Cl)c(-n2c(=O)n(C[C@H]3CC[C@H](NC(=O)c4cc(Cl)cnc4C(F)F)CC3)c3ncccc32)c1` [Example 675, 5-chloro-N-((1r,4r)-4-((1-(2-chloro-5-methoxyphenyl)-2-oxo-1H-imidazo[4,5-b]pyridin-3(2H)-yl)methyl)cyclohexyl)-2-(difluoro-methyl)nicotinamide], less than 300 nM. The value for `COc1ccc(-n2c(=O)n(C[C@H]3CC[C@H](NC(=O)c4cc(Cl)cnc4C(F)F)CC3)c3cccnc32)cc1F` [Example 710, 5-chloro-2-(difluoromethyl)-N-((1r,4r)-4-((3-(3-fluoro-4-methoxyphenyl)-2-oxo-2,3-dihydro-1H-imidazo[4,5-b]pyridin-1-yl)methyl)cyclo-hexyl)nicotinamide] was less than 300 nM; that for `COCCNc1ccc(-n2c(=O)n(C[C@H]3CC[C@H](NC(=O)c4cc(Cl)cnc4C(F)(F)F)CC3)c3ccccc32)cn1` [Example 664, 5-chloro-N-((1r,4r)-4-((3-(6-((2-methoxyethyl)amino)pyridin-3-yl)-2-oxo-2,3-dihydro-1H-benzo[d]imidazol-1-yl)methyl)cyclohexyl)-2-(trifluoromethyl)nicotinamide] was less than 300 nM; that for `O=C(N[C@H]1CC[C@H](Cn2c(=O)n(-c3ccc(OCCO)nc3)c3ccccc32)CC1)c1cc(Cl)cnc1C(F)(F)F` [Example 301, 5-chloro-N-((1r,4r)-4-((3-(6-(2-hydroxyethoxy)pyridin-3-yl)-2-oxo-2,3-dihydro-1H-benzo[d]imidazol-1-yl)methyl)cyclohexyl)-2-(trifluoromethyl)nicotinamide] was less than 300 nM. The value for `Cc1ncc(Cl)cc1C(=O)N[C@H]1CC[C@H](Cn2c(=O)n(-c3ccnc4ccccc34)c3ccccc32)CC1` [Example 370, 5-chloro-2-methyl-N-((1r,4r)-4-((2-oxo-3-(quinolin-4-yl)-2,3-dihydro-1H-benzo[d]imi-dazol-1-yl)methyl)cyclohexyl) nicotinamide] was less than 300 nM; that for `N#Cc1cc(F)ccc1-n1c(=O)n(C[C@H]2CC[C@H](NC(=O)c3cc(Cl)cnc3C(F)F)CC2)c2ccccc21` [Example 627, 5-chloro-N-((1r,4r)-4-((3-(2-cyano-4-fluorophenyl)-2-oxo-2,3-dihydro-1H-benzo[d]imidazol-1-yl)methyl)cyclohexyl)-2-(difluoromethyl)nicotinamide] was less than 300 nM. For `COC1CN(c2ccc(-n3c(=O)n(C[C@H]4CC[C@H](NC(=O)c5cc(Cl)cnc5C)CC4)c4ccccc43)cn2)C1` [Example 144, 5-chloro-N-((1r,4r)-4-((3-(6-(3-methoxyazetidin-1-yl)pyridin-3-yl)-2-oxo-2,3-dihydro-1H-benzo[d]imidazol-1-yl)methyl)cyclohexyl)-2-methylnicotinamide], the half-maximal inhibitory concentration (IC50) is less than 300 nM. In the case of `O=C(N[C@H]1CC[C@H](Cn2c(=O)n(-c3ccc4ncccc4c3)c3cccnc32)CC1)c1cc(Cl)cnc1C(F)(F)F` [Example 360, 5-chloro-N-((1r,4r)-4-((2-oxo-1-(quinolin-6-yl)-1H-imidazo [4,5-b]pyridin-3(2H)-yl)methyl)cyclohexyl)-2-(trifluoromethyl) nicotinamide], the IC50 was less than 300 nM.

`CNC(=O)c1ccc(-n2c(=O)n(C[C@H]3CC[C@H](NC(=O)c4cc(Cl)cnc4C(F)F)CC3)c3ccc(F)cc32)cn1` [Example 562, 5-(3-(((1r,4r)-4-(5-chloro-2-(difluororomethyl)nicotina-mido)cyclohexyl)methyl)-6-fluoro-2-oxo-2,3-dihydro-1H-benzo[d]imidazol-1-yl)-N-methylpicolinamide]: the IC50 was less than 300 nM. On to `Cc1ncc(Cl)cc1C(=O)N[C@H]1CC[C@H](Cn2c(=O)n(-c3ccccc3F)c3ccccc32)CC1` [Example 33, 5-chloro-N-((1r,4r)-4-((3-(2-fluorophenyl)-2-oxo-2,3-dihydro-1H-benzo[d]imidazol-1-yl)methyl)cyclohexyl)-2-methylnicotinamide], for which the IC50 is less than 300 nM. For the compound `Cc1c[nH]c2ncc(-n3c(=O)n(C[C@H]4CC[C@H](NC(=O)c5cc(Cl)cnc5C(F)F)CC4)c4ncccc43)cc12` [Example 578, 5-chloro-2-(difluoromethyl)-N-((1r,4r)-4-((1-(3-methyl-1H-pyrrolo[2,3-b]pyridin-5-yl)-2-oxo-1H-imidazo[4,5-b]pyridin-3(2H)-yl)methyl)cyclohexyl)nicotinamide], the IC50 was less than 300 nM. Regarding `Cc1ncc(Cl)cc1C(=O)N[C@H]1CC[C@H](Cn2c(=O)n(-c3ccc(NC[C@H]4CCCO4)nc3)c3ccccc32)CC1` [Example 110, 5-chloro-2-methyl-N-((1R,4r)-4-((2-oxo-3-(6-((((R)-tetra-hydrofuran-2-yl)methyl)amino)pyridin-3-yl)-2,3-dihydro-1H-benzo[d]imidazol-1-yl)methyl)cyclohexyl)nicotinamide], the concentration for half-maximal inhibition (IC50) was less than 300 nM. For `Cc1ncc(Cl)cc1C(=O)N[C@H]1CC[C@H](Cn2c(=O)n(-c3cnc4c(c3)OCCN4)c3ccccc32)CC1` [Example 159, 5-chloro-N-((1r,4r)-4-((3-(3,4-dihydro-2H-pyrido[3,2-b][1,4]oxazin-7-yl)-2-oxo-2,3-dihydro-1H-benzo[d]imidazol-1-yl)methyl)cyclohexyl)-2-methylnicotinamide] the value was less than 300 nM.

On to `Cc1ncc(Cl)cc1C(=O)N[C@H]1CC[C@H](Cn2c(=O)n(-c3ccc(C(=O)Nc4ccccn4)nc3)c3ccccc32)CC1` [Example 174, 5-(3-(((1r,4r)-4-(5-chloro-2-methylnicotinamido)cyclo-hexyl)methyl)-2-oxo-2,3-dihydro-1H-benzo[d]imidazol-1-yl)-N-(pyridin-2-yl) picolinamide], for which the IC50 is less than 300 nM. `COCCNc1ccc(-n2c(=O)n(C[C@H]3CC[C@H](NC(=O)c4cc(Cl)cnc4C(F)F)CC3)c3ccccc32)cn1` [Example 572, 5-chloro-2-(difluoromethyl)-N-((1r,4r)-4-((3-(6-((2-methoxyethyl)amino)pyridin-3-yl)-2-oxo-2,3-dihydro-1H-benzo[d]imidazol-1-yl)methyl)cyclohexyl)nicotinamide]: the IC50 was less than 300 nM. Consider `CNC(=O)c1ccc(-n2c(=O)n(C[C@H]3CC[C@H](NC(=O)c4cc(Cl)cnc4C(F)F)CC3)c3cccc(F)c32)cn1` [Example 628, 5-(3-(((1 r,4r)-4-(5-chloro-2-(difluoromethyl)nicotinamido)cyclohexyl)methyl)-7-fluoro-2-oxo-2,3-dihydro-1H-benzo [d]imidazol-1-yl)-N-methylpicolinamide], for which the IC50 was less than 300 nM. As for `Cc1ncc(Cl)cc1C(=O)N[C@H]1CC[C@H](Cn2c(=O)n(-c3ccc4cncnc4c3)c3ccccc32)CC1` [Example 443, 5-chloro-2-methyl-N-((1r,4r)-4-((2-oxo-3-(quinazolin-7-yl)-2,3-dihydro-1H-benzo[d]imidazol-1-yl)methyl)cyclo-hexyl)nicotinamide], the IC50 is less than 300 nM. With `CNc1ccc(-n2c(=O)n(C[C@H]3CC[C@H](NC(=O)c4cc(Cl)cnc4C(F)F)CC3)c3ccccc32)nc1` [Example 660, 5-chloro-2-(difluoromethyl)-N-((1r,4r)-4-((3-(5-(methylamino)pyridin-2-yl)-2-oxo-2,3-dihydro-1H-benzo[d]imidazol-1-yl)methyl)cyclohexyl)nicotinamide], the IC50 was less than 300 nM. Take `O=C(N[C@H]1CC[C@H](Cn2c(=O)n(-c3ccc(OCCF)nc3)c3ccccc32)CC1)c1cc(Cl)cnc1C(F)F` [Example 432, 5-chloro-2-(difluoromethyl)-N-((1r,4r)-4-((3-(6-(2-fluoroethoxy)pyridin-3-yl)-2-oxo-2,3-dihydro-1H-benzo[d]imidazol-1-yl)methyl)cyclohexyl)nicotinamide]: the IC50 was less than 300 nM.

For the origin of these results see US11802120B2, “Fused cyclic urea derivatives as CRHR2 antagonist” (RaQualia Pharma Inc., priority 2018, dated 2023).
